Converted amounts (≈) assume the structure as drawn. Read-outs that look alike come from different tables or passages of the source.
Legend:
Botrtyis cinerea (Bc) = test: Growth inhibition assay of fungal pathogens, Bc; format: cell-based; conditions: 48 h, growth inhibition at 48 hours vs 2% DMSO control
Procedure: (§1) Compounds of the present invention were evaluated in a growth inhibition assay to determine the ability to control the growth of fungal pathogens, such as Botrtyis cinerea (Bc), Collectotrichum graminicola (Cg), Diplodia maydis (Dm), Fusarium moniliforme (Fm), Fusarium virguliforme (Fv), Phytophthora capsici (Pc), Rhizoctonia solani (Rs), and Septoria tritici (St).
(§2) Compounds to be tested were dissolved in DMSO at 2.5 mg/ml to produce compound stock solutions (“stocks”). Stocks were diluted with DMSO by a five-fold dilution in a 96-well stock plate, and two sets of final concentrations of 50, 10, and 2 ppm or 2, 0.4, and 0.08 ppm were obtained in vitro. A set of positive controls was also prepared, with various concentrations of Soraphen (2, 0.4, and 0.08 ppm), Metalaxyl (1.1, 0.22, and 0.04 ppm), and Metconazole (2, 0.4, and 0.08 ppm or 0.2, 0.04, and 0.008 ppm) after the five-fold dilutions. Negative controls on each plate included 2% DMSO, water, and a blank (media+2% DMSO).
(§3) Fungal spores were isolated from previously sub-cultured plates of Botrtyis cinerea (Bc), Collectotrichum graminicola (Cg), Diplodia maydis (Dm), Fusarium moniliforme (Fm), Fusarium virguliforme (Fv), Phytophthora capsici (Pc), and Septoria tritici (St). The isolated spores were diluted to individual concentrations with a 17% V8 liquid media. For Rhizoctonia solani (Rs) and Pythium irregulare, 1.5 mm mycelial plugs were used in place of spores and/4 Potato Dextrose Broth (PDB) was used for dilution. The spore concentrations and plug sizes were based on growth curves generated at 48 hours for each pathogen.
(§4) In a second 96-well plate, the spores or mycelial plugs, media, diluted compound solutions, and controls were combined. Once the compound was added, a true final concentration of compound in each well was measured by an OD600 reading, which adjusted for any compound precipitation that might have occurred in the well. Plate readings were repeated at both 24 and 48 hours. The blank negative control was used as a background subtraction. Additional visual ratings were performed at both 24 and 48 hours for checking on precipitation and confirming efficacy. Visual and OD600 ratings of the compounds at 48 hours were compared to the 2% DMSO negative control, and the percent of pathogen growth inhibition was determined based on those values.

[1] = test system: Phytophthora capsici (Pc); test: Growth inhibition assay of fungal pathogens, Pc; format: cell-based; conditions: 48 h
Procedure: as §1, §2, §3, §4

C. parapsilosis = test: Antifungal Activity Assay (broth microtiter MIC), C. parapsilosis; format: cell-based, Candida parapsilosis; conditions: Lodderomyces parapsilosis, ATCC22019, 48 h
In short: (§5)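 CLSI M27-A3 broth microdilution in RPMI 1640+MOPS, final inoculum 2.5×10^3 CFU/mL from overnight Sabouraud cultures grown at 35 °C. MIC read visually at 48 h against growth control.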

C. albicans = test: Antifungal Activity Assay (broth microtiter MIC), C. albicans; format: cell-based, Candida albicans; conditions: Candida albicans, ATCC90028, 48 h
In short: as §5

Rhizoctonia solani (Rs) = test: Growth inhibition assay of fungal pathogens, Rs; format: cell-based; conditions: 48 h
Diplodia maydis (Dm) = test: Growth inhibition assay of fungal pathogens, Dm; format: cell-based; conditions: Stenocarpella maydis, 48 h, growth inhibition at 48 hours vs 2% DMSO control
Procedure: as §1, §2, §3, §4

C. krusei = test: Antifungal Activity Assay (broth microtiter MIC), C. krusei; format: cell-based, Candida krusei; conditions: Pichia kudriavzevii, ATCC6258, 48 h
In short: as §5

human (hACC2) = human (hACC2) (Homo sapiens, UniProt O00763); test: In vitro ACC inhibition assay (ADP-Glo), hACC2; format: biochemical; conditions: Table 2b, additional results, 5 nM ACC2, 20 μM ATP, 20 μM acetyl-CoA
Chain of human (hACC2) (O00763 whole entry): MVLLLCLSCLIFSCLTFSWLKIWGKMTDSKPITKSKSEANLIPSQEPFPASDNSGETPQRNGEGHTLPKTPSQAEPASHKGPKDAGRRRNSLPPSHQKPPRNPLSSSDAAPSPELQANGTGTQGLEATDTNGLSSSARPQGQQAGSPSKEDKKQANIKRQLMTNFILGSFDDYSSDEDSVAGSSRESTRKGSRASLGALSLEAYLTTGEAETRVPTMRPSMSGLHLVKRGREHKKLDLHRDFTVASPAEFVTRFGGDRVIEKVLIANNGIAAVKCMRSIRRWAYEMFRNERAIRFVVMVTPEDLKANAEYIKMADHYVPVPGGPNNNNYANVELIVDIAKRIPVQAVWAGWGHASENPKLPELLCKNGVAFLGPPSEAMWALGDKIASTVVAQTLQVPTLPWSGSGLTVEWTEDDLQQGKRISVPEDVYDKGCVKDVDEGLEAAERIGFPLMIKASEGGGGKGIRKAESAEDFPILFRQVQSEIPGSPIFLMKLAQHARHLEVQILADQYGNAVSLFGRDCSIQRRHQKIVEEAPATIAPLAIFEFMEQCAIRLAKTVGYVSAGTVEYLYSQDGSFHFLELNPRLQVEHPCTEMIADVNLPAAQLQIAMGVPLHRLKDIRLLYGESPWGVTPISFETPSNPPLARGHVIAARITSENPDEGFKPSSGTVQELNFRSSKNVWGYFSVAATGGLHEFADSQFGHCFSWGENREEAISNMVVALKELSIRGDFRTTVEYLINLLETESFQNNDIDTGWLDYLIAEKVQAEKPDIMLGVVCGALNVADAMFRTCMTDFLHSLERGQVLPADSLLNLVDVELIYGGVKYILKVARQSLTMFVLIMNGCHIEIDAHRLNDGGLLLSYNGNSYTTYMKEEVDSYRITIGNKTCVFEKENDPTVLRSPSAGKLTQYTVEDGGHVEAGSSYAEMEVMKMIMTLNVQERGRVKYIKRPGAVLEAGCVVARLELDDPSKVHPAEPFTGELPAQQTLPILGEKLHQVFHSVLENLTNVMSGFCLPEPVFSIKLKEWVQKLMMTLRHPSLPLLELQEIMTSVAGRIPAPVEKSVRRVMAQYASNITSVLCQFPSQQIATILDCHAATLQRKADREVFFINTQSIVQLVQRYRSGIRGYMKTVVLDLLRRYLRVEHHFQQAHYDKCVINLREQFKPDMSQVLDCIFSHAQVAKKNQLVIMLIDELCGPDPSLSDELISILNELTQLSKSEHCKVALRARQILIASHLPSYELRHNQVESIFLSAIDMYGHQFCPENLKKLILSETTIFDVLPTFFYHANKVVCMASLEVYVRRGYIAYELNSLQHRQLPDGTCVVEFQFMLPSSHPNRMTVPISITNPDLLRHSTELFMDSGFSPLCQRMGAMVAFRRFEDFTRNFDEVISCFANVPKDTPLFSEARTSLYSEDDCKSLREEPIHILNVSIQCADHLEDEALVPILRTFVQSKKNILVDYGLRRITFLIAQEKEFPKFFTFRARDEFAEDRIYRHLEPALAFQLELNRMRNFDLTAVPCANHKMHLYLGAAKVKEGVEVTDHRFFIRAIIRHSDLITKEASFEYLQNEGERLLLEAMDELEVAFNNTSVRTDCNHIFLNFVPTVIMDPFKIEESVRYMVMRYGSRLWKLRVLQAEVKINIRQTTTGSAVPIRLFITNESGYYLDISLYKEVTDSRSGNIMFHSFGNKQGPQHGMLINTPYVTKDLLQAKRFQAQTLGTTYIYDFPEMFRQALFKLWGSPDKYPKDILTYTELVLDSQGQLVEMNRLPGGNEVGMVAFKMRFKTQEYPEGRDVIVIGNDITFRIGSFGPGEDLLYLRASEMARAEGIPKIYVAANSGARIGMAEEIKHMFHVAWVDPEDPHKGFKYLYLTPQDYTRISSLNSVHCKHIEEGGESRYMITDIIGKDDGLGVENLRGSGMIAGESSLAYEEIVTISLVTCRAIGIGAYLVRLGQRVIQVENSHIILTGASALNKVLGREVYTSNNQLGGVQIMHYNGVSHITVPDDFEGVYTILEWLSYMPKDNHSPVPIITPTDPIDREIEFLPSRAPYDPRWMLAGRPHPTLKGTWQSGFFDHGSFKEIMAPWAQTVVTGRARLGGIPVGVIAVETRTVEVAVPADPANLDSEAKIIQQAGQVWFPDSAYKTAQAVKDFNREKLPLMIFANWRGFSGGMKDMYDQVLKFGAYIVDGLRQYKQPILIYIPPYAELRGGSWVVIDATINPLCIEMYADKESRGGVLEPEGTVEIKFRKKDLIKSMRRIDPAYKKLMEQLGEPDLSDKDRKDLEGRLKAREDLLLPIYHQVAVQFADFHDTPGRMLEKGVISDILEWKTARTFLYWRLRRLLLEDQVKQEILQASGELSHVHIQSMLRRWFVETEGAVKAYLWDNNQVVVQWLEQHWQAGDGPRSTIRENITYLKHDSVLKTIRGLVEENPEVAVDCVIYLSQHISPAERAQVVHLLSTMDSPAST
Procedure: The detailed procedure is as follows. […] 10 μL ADP glo reagent was added. […] 20 μL kinase detection reagent was added.

fungal (fACC2) = fungal (fACC2) (UniProt Q00955); conditions: read-out: fACC2 (in vitro ACC2 Inhibition Assay, IC50); Table 2b, additional results; ADP-Glo, 5 nM ACC2, 20 μM ATP, 20 μM acetyl-CoA
Chain of fungal (fACC2) (Q00955 whole entry): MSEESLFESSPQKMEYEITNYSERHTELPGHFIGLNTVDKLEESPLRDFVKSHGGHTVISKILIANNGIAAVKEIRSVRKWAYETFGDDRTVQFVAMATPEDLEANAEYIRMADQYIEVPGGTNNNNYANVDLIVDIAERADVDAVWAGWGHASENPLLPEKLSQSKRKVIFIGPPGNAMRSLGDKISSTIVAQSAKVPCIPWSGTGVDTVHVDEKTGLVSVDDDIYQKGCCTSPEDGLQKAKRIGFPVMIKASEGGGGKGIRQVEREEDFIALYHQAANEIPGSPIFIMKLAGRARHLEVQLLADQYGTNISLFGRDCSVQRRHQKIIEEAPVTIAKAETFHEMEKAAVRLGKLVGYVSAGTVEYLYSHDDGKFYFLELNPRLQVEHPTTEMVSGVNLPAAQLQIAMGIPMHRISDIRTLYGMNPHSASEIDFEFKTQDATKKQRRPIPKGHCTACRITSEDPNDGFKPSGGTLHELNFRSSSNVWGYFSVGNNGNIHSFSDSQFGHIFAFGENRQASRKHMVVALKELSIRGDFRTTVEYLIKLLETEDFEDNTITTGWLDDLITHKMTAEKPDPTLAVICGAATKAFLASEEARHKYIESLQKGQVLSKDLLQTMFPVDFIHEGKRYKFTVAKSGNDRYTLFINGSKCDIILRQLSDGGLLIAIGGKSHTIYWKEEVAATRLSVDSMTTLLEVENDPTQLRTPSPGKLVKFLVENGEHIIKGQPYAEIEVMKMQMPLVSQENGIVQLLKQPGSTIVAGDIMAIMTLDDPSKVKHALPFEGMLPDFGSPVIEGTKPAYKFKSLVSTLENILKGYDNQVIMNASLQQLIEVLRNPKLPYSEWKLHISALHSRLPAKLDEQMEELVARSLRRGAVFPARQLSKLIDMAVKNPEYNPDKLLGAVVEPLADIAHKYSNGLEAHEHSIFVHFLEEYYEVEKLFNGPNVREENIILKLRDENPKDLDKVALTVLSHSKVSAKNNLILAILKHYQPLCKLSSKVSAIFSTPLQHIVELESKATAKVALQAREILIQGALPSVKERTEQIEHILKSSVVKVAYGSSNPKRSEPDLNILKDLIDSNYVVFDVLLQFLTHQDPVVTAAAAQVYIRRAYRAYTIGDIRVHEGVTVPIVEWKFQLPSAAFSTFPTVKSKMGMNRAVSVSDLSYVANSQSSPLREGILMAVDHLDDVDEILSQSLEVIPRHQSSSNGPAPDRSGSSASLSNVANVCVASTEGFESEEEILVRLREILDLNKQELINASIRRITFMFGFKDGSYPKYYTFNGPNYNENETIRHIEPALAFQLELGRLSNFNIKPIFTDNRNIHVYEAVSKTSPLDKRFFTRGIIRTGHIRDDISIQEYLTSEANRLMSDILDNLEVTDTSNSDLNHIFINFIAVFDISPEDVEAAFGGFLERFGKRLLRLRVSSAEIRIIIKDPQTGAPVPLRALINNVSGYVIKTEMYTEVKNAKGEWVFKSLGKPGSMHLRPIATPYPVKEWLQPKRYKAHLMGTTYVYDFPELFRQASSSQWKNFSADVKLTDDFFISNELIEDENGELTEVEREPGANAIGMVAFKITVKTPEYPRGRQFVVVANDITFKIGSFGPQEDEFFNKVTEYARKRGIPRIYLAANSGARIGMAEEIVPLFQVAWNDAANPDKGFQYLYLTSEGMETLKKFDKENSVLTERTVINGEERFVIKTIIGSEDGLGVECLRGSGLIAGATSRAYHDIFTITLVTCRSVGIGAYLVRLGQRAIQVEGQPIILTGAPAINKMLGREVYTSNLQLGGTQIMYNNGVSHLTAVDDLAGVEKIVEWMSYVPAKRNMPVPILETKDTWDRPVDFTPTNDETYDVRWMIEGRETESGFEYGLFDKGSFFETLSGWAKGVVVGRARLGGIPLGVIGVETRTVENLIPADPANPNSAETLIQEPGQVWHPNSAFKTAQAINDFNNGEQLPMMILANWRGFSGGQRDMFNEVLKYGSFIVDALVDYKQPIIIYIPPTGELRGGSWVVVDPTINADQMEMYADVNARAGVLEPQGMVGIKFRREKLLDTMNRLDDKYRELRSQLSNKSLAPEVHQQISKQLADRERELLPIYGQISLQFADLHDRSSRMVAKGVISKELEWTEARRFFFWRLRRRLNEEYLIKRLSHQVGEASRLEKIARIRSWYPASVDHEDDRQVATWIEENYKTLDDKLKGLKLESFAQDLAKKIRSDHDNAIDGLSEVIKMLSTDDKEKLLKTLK

[2] = test system: Fusarium virguliforme (Fv); test: Growth inhibition assay of fungal pathogens, Fv; format: cell-based; conditions: 48 h
Procedure: as §1, §2, §3, §4

Septoria tritici (St) = test: Growth inhibition assay of fungal pathogens, St; format: cell-based; conditions: Zymoseptoria tritici, 48 h, growth inhibition at 48 hours vs 2% DMSO control
Procedure: as §1, §2, §3, §4

[3] = test system: Fusarium moniliforme (Fm); test: Growth inhibition assay of fungal pathogens, Fm; format: cell-based; conditions: Fusarium verticillioides, 48 h, read-out: Concentration at 90% Inhibition Fm
Procedure: as §1, §2, §3, §4

[4] = test system: Collectotrichum graminicola (Cg); test: Growth inhibition assay of fungal pathogens, Cg; format: cell-based; conditions: 48 h, growth inhibition at 48 hours vs 2% DMSO control
Procedure: as §1, §2, §3, §4

[5] = Botrtyis cinerea, read-out: Concentration at 90% Inhibition Bc
[6] = growth inhibition at 48 hours vs 2% DMSO control, read-out: Concentration at 90% Inhibition Pc
[7] = Table 3b (additional results), ATCC 22019, 3 replicates, MIC recorded at 48 h, read-out: MIC, C. parapsilosis ATCC 22019
[8] = Table 3b (additional results), ATCC 90028, 3 replicates, MIC recorded at 48 h, read-out: MIC, C. albicans ATCC 90028
[9] = mycelial plugs, growth inhibition at 48 hours vs 2% DMSO control, read-out: Concentration at 90% Inhibition Rs
[10] = Diplodia maydis, read-out: Concentration at 90% Inhibition Dm
[11] = Table 3b (additional results), ATCC 6258, 3 replicates, MIC recorded at 48 h, read-out: MIC, C. krusei ATCC 6258
[12] = growth inhibition at 48 hours vs 2% DMSO control, read-out: Concentration at 90% Inhibition Fv
[13] = Septoria tritici, read-out: Concentration at 90% Inhibition St
[14] = Fusarium moniliforme, growth inhibition at 48 hours vs 2% DMSO control
[15] = Collectotrichum graminicola, read-out: Concentration at 90% Inhibition Cg
[16] = read-out: Concentration at 90% Inhibition Bc, Botrtyis cinerea
[17] = read-out: Concentration at 90% Inhibition Pc, Phytophthora capsici, growth inhibition at 48 hours vs 2% DMSO control
[18] = read-out: MIC, C. parapsilosis ATCC 22019, Table 3b (additional results), 3 replicates, MIC recorded at 48 h
[19] = read-out: MIC, C. albicans ATCC 90028, Table 3b (additional results), 3 replicates, MIC recorded at 48 h
[20] = read-out: Concentration at 90% Inhibition Rs, Rhizoctonia solani, mycelial plugs, growth inhibition at 48 hours vs 2% DMSO control
[21] = read-out: Concentration at 90% Inhibition Dm, Diplodia maydis
[22] = read-out: MIC, C. krusei ATCC 6258, Table 3b (additional results), 3 replicates, MIC recorded at 48 h
[23] = read-out: Concentration at 90% Inhibition Fv, Fusarium virguliforme, growth inhibition at 48 hours vs 2% DMSO control
[24] = read-out: Concentration at 90% Inhibition St, Septoria tritici
[25] = read-out: Concentration at 90% Inhibition Cg, Collectotrichum graminicola

Compound | IC90 (Botrtyis cinerea (Bc); [5]) | IC90 [1, 6] | MIC (C. parapsilosis; [7]) | MIC (C. albicans; [8]) | IC90 (Rhizoctonia solani (Rs); [9]) | IC90 (Diplodia maydis (Dm); [10]) | MIC (C. krusei; [11]) | IC50 (human (hACC2)) | IC50 (fungal (fACC2)) | IC90 [2, 12] | IC90 (Septoria tritici (St); [13]) | IC90 [3, 14] | IC90 [4, 15] | IC90 (Botrtyis cinerea (Bc); [16]) | IC90 [1, 17] | MIC (C. parapsilosis; [18]) | MIC (C. albicans; [19]) | IC90 (Rhizoctonia solani (Rs); [20]) | IC90 (Diplodia maydis (Dm); [21]) | MIC (C. krusei; [22]) | further results
CCNC(=O)C(C)(C)n1c(=O)c2c(C)c(-n3nccn3)sc2n(C[C@H](OC(C)=O)c2cc(F)ccc2OC)c1=O [Compound I-257] | > 50 µg/mL | > 50 µg/mL | 2.01 to 4 µg/mL (≈ 3.51 to 6.99 µM) | 2.01 to 4 µg/mL (≈ 3.51 to 6.99 µM) | > 50 µg/mL | > 50 µg/mL | 1.01 to 2 µg/mL (≈ 1.76 to 3.49 µM) | > 40 nM | 5 to 10 nM | > 50 µg/mL | > 50 µg/mL | 10 µg/mL (≈ 17.5 µM) | > 50 µg/mL |  |  |  |  |  |  |  | 
Cc1c(-n2nccn2)sc2c1c(=O)n(C(C)(C)C(=O)NC(C)C)c(=O)n2CCc1cc(F)ccc1OCCC#N [Compound I-280] |  |  |  |  |  |  |  | 10 to 40 nM | 1 to 5 nM |  |  |  |  | 10 µg/mL (≈ 17.6 µM) | > 50 µg/mL | 1.01 to 2 µg/mL (≈ 1.78 to 3.52 µM) | 1.01 to 2 µg/mL (≈ 1.78 to 3.52 µM) | > 50 µg/mL | > 50 µg/mL | 1.01 to 2 µg/mL (≈ 1.78 to 3.52 µM) | IC90 [2, 23]: 2 µg/mL (≈ 3.52 µM); IC90 (Septoria tritici (St); [24]): > 50 µg/mL; IC90 [3]: 2 µg/mL (≈ 3.52 µM); IC90 [4, 25]: > 50 µg/mL
COc1ccc(F)cc1[C@H](Cn1c(=O)n(C(C)(C)C(=O)NC(C)C)c(=O)c2c(C)c(-n3nccn3)sc21)O[C@H]1CC[C@@H](O)CC1 [Compound I-216] |  |  |  |  |  |  |  | 5 to 10 nM | 0.3 to 1 nM |  |  |  |  | 0.4 µg/mL (≈ 0.622 µM) | > 50 µg/mL | 0.25 to 1 µg/mL (≈ 0.389 to 1.56 µM) | 0.25 to 1 µg/mL (≈ 0.389 to 1.56 µM) | 0.08 µg/mL (≈ 0.124 µM) | 2 µg/mL (≈ 3.11 µM) | 0.06 to 0.249 µg/mL (≈ 0.0933 to 0.387 µM) | IC90 [2, 23]: 0.4 µg/mL (≈ 0.622 µM); IC90 (Septoria tritici (St); [24]): > 50 µg/mL; IC90 [3]: 0.08 µg/mL (≈ 0.124 µM); IC90 [4, 25]: 2 µg/mL (≈ 3.11 µM)
COc1ccc(C#N)cc1[C@H](Cn1c(=O)n(C(C)(C)C(=O)NC(C)C)c(=O)c2c(C)c(-n3nccn3)sc21)OCC(C)(C)C#N [Compound I-223] | 10 µg/mL (≈ 15.8 µM) | > 50 µg/mL | 1.01 to 2 µg/mL (≈ 1.6 to 3.16 µM) | 0.25 to 1 µg/mL (≈ 0.395 to 1.58 µM) | 2 µg/mL (≈ 3.16 µM) | > 50 µg/mL | 0.25 to 1 µg/mL (≈ 0.395 to 1.58 µM) | 10 to 40 nM | 1 to 5 nM | 10 µg/mL (≈ 15.8 µM) | > 50 µg/mL | 0.4 µg/mL (≈ 0.632 µM) | > 50 µg/mL |  |  |  |  |  |  |  | 

Source: US10800791B2, “Triazole ACC inhibitors and uses thereof” (Gilead Apollo, LLC, priority 2015, dated 2020)
